From US4816438A, “Insulin-selective somatostatin analogs” (The Salk Institute for Biological Studies, priority 1987, dated 1989)
Where a SMILES comes first, the peptide text is derived from it. Bridges are numbered along the chain shown (N, C = ends).

Assays:
[1] = tested on: cells of rat pituitary glands; assay: in vitro radioimmunoassays of growth hormone release from cultured rat pituitary cells, side-by-side with somatostatin-14; type: cell-based; conditions: comparative testing in rat pituitary cell cultures
Description: To determine the effectiveness of the peptides to inhibit the release of insulin, in vitro radioimmunoassays are carried out using aSS-28, [Lys^23 ]-aSS-28 and aSS(15-28) in side-by-side comparison with equimolar concentrations of somotostatin-14 having a known effectiveness to inhibit the release of growth hormone induced by the application of isobutyl methyl xanthine to pituitary cells. Cultures are used which include cells of rat pituitary glands removed some four to five days previously in a system that minimizes enzymatic degradation, generally following the procedure set forth in Vale et al., Methods in Enzymology, Hormones and Cyclic Nucleotides (1975) Vol. 37, p. 82. Both cultures of a defined standard medium and cultures which are considered optimal for the secretion of growth hormone, as a result of having additions of either 2% or 10% of serum from a foetal calf, are used for the comparative testing.

[2] = synthetic SS-28; literature report; cited from earlier work

Q: Which “biological activity / potency relative to aSS-28” value [1] does the source give for CC(C)C[C@H](NC(=O)[C@H](CC(N)=O)NC(=O)[C@H](CC(N)=O)NC(=O)[C@@H](NC(=O)[C@H](CO)NC(=O)[C@H](CC(=O)O)NC(=O)[C@@H](NC(=O)[C@@H](N)CO)C(C)C)[C@@H](C)O)C(=O)N1CCC[C@H]1C(=O)N1CCC[C@H]1C(=O)N[C@@H](CCCNC(=N)N)C(=O)N[C@@H](CCC(=O)O)C(=O)N[C@@H](CCCNC(=N)N)C(=O)N[C@@H](CCCCN)C(=O)N[C@@H](C)C(=O)NCC(=O)N[C@H]1CSSC[C@@H](C(=O)O)NC(=O)[C@H](CO)NC(=O)[C@H]([C@@H](C)O)NC(=O)[C@H](Cc2ccccc2)NC(=O)CNC(=O)[C@H](CCCCN)NC(=O)[C@H](Cc2c[nH]c3ccccc23)NC(=O)[C@H](Cc2ccc(O)cc2)NC(=O)[C@H](Cc2ccccc2)NC(=O)[C@H](CC(N)=O)NC(=O)[C@H](CCCCN)NC1=O [[Lys^23]-aSS-28] (H-SVDSTNNLPPRERKAGCKNFYWKGFTSC-OH; disulfide 17-28) here?
A: similarly biologically active although having somewhat lower potencies

Q: For somatostatin-28 [SS-28], which “potency when administered in vivo” value [2] is on record?
A: increased potency
